Experimental findings from patent publication US20070254863A1 (priority 2006, published 2007) are described below.

Read-outs that look alike come from different tables or passages of the source.

The target in one assay is rat SUR2A (Rattus norvegicus, UniProt Q63563). Briefly: In vitro binding affinity to rodent KATP channels: SUR2A ([3H]P1075 / [3H]glibenclamide displacement, COS cell membranes). As to the method: Therefore, two strategies can be used to detect binding to the sulfonylurea site on SUR2A.
Chain of rat SUR2A (Q63563 whole entry, canonical isoform): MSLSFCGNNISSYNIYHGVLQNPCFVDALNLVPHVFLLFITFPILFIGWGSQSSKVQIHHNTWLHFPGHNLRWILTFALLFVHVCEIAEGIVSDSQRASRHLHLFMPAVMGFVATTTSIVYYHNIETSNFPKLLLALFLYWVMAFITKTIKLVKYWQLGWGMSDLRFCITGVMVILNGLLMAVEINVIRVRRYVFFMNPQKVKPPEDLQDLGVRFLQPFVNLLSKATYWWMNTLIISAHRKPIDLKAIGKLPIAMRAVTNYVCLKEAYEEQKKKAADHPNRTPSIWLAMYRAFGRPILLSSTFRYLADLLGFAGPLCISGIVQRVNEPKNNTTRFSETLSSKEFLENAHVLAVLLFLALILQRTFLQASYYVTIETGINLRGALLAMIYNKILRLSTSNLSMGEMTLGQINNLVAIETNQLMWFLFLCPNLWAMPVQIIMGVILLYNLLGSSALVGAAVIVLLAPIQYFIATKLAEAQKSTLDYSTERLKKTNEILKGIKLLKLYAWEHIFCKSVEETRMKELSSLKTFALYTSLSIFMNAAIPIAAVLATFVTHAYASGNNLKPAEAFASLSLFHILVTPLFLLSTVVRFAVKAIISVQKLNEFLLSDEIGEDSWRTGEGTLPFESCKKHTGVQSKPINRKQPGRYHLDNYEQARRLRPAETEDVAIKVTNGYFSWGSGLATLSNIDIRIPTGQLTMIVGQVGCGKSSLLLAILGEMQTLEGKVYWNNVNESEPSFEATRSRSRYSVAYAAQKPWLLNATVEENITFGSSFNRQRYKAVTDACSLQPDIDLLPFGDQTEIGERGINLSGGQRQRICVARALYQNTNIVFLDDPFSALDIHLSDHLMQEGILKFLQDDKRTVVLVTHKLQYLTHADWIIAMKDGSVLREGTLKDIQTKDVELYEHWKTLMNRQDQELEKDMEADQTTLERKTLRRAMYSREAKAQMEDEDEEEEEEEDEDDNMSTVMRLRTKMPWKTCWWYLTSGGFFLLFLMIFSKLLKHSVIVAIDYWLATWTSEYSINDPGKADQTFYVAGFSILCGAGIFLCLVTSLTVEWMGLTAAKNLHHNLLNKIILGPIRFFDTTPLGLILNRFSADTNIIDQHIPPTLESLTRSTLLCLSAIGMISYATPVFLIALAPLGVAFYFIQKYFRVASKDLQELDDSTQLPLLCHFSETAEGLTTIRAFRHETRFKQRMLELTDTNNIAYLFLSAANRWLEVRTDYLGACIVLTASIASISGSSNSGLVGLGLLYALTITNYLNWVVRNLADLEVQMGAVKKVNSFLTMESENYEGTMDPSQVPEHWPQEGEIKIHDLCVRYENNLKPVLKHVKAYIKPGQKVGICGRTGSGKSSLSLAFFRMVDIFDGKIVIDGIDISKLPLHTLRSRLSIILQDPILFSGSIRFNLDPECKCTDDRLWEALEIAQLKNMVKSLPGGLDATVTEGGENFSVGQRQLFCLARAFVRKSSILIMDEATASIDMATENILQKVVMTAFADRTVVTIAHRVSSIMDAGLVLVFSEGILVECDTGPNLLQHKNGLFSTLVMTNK
Membranes from COS-cells transiently expressing rat SUR2A were incubated in the presence of the radioligands with increasing concentrations of test compounds as described above. […] For each test compound four displacement curves were measured (displacement of [^3H]P1075 from the rat isoform of the wild type receptor and displacement of [^3H]glibenclamide from the rat isoform of SUR2AY1205S). Per curve 9-15 distinct concentrations were tested covering the relevant range. All measurements were repeated at least 5 times in independent experiments.
(§1) [^3H]glibenclamide (specific activity 51 Ci mmol^−1) was obtained from NEN (Dreieich, Germany). Where needed, stock solutions were prepared in dimethylsulfoxide with a final solvent concentration in the media below 1%.
(§2) SUR- or Kir6.x isoforms were used either subcloned in the pcDNA (hamster SUR1, mouse Kir6.2) or pCMV vector (rat SUR2A, SUR2B).
(§3) For transfection, the cells were incubated 4 hours in a Tris-buffered salt solution containing DNA (5-10 μg/ml) plus DEAE-dextran (1 mg/ml), 2 min in HEPES-buffered salt solution plus dimethylsulfoxide (10%) and 4 hours in DMEM-HG plus chloroquine (100 μM). Cells were then returned to DMEM-HG plus 10% FCS. […] For binding experiments, resuspended membranes (final protein concentration 5-50 μg/ml) were incubated in “Tris-buffer” (50 mM, pH 7.4) containing either [^3H]glibenclamide (final concentration 0.3 nM or 3 nM and nonspecific binding defined by 100 nM or 1 μM glibenclamide for SUR1 or SUR2Y1205S-isoforms, respectively) or [^3H]P1075 (final concentration 3 nM, nonspecific binding defined by 100 μM pinacidil) and increasing concentrations of the test compounds. The free Mg^2+ concentration were kept close to 0.7 mM. […] Incubations were carried out for 1 h at room temperature and were terminated by rapid filtration through Whatman GF/B filters.
(§4) The inhibition constant (Ki value) of the test substances was calculated from the respective IC50 value, and was stated as the negative logarithmic value thereof (pKi).

The target in the next assay is T1, hamster SUR1 (Cricetus cricetus, UniProt Q09427).
T1 construct: expressed in transfected cells; host or cells: COS-1 cells, transient (pcDNA vector)
T1 sequence (Q09427 whole entry): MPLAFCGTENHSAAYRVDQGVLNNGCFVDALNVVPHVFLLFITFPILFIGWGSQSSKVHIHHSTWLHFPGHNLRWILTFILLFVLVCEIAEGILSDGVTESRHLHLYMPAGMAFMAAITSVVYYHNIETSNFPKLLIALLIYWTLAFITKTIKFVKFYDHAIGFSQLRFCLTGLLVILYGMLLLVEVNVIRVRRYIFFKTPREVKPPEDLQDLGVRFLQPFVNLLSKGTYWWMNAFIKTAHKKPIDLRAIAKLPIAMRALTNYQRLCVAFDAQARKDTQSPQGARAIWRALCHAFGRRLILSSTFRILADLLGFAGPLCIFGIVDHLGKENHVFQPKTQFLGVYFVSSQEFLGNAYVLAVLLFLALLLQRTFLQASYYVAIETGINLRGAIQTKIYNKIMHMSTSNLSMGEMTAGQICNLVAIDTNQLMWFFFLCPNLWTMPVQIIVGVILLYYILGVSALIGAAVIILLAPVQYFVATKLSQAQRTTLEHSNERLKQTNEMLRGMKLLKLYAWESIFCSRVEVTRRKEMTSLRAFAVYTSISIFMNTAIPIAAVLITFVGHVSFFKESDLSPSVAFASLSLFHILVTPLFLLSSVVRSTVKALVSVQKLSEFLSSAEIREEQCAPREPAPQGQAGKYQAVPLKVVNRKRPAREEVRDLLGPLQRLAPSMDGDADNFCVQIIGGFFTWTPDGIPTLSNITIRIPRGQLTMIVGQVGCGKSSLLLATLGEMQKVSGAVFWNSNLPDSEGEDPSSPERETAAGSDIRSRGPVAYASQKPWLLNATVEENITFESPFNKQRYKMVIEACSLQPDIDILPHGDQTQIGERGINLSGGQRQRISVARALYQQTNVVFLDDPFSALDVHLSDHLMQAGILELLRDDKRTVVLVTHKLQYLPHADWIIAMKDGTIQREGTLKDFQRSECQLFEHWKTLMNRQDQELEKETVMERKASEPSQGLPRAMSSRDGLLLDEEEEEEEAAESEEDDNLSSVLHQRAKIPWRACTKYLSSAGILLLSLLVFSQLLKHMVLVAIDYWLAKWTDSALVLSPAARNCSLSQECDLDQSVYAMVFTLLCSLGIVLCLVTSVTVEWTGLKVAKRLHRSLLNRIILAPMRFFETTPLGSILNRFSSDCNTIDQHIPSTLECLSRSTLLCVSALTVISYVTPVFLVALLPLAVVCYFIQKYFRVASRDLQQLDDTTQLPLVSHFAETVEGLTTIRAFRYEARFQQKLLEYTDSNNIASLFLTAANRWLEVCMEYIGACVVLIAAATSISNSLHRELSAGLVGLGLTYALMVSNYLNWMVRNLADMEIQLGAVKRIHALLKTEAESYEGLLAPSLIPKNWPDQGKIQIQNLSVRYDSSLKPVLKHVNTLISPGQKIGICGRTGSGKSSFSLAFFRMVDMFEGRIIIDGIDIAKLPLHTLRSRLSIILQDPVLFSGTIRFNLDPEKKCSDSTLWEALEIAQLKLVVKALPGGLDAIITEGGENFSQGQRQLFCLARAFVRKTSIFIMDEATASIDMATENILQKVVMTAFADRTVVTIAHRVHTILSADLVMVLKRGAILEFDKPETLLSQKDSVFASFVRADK
The experiment in a line: In vitro binding affinity to rodent KATP channels: SUR1 ([3H]glibenclamide displacement, COS cell membranes). The following applies: hamster SUR1 in COS cell membranes; read-out: Affinity to SUR 1 (converted). The method, then: 1. In Vitro Binding Affinity of the Test Compounds to Rodent KATP Channels
Competitive binding experiments were performed to characterize the affinity of the test compounds for the binding sites for sulfonylureas and KATP channel openers (KCOS) on hamster SUR1. To assess the affinity for the sulfonylurea site, membranes from COS-cells transiently expressing hamster SUR1 were incubated in the presence of [^3H]glibenclamide with increasing concentrations of test compounds. […] For each test compound four displacement curves were measured (+/−MgATP from the human and hamster isoform). Per curve 9-15 distinct concentrations were tested covering the relevant range. All measurements were repeated at least 5 times in independent experiments.
as §1, §2, §3, §4

[1] abbreviates: rat SUR2A in COS cell membranes.

Broadly, the pKi is the Ki on a negative log10 scale, so that one unit is a factor of ten.

`O=C(NN1CCCCC1)c1nc(-c2ccc(Cl)cc2Cl)n(-c2ccc(Br)cc2)c1Cl` [1-(4-Bromo-phenyl)-5-chloro-2-(2,4-dichloro-phenyl)-1H-imidazole-4-carboxylic acid piperidin-1-ylamide] yielded a pKi on rat SUR2A of 5.5. The Ki at hamster SUR1 is 3.98 µM.
`O=C(NN1CCCCC1)c1nc(-c2ccc(Cl)cc2Cl)n(-c2ccc(Cl)cc2)c1CC(F)(F)F` [1-(4-Chloro-phenyl)-2-(2,4-dichloro-phenyl)-5-(2,2,2-trifluoro-ethyl)-1H-imidazole-4-carboxylic acid piperidin-1-ylamide] displayed a pKi at rat SUR2A of 5.7. The Ki on hamster SUR1 was 15.8 µM.
For `CCSc1c(C(=O)NN2CCCCC2)nc(-c2ccc(Cl)cc2Cl)n1-c1ccc(Cl)cc1` [1-(4-Chloro-phenyl)-2-(2,4-dichloro-phenyl)-5-ethylsulfanyl-1H-imidazole-4-carboxylic acid piperidin-1-ylamide] the same measures were 5.3 and 7.94 µM.
Regarding `C[S+]([O-])c1c(C(=O)NN2CCCCC2)nc(-c2ccc(Cl)cc2Cl)n1-c1ccc(Cl)cc1` (centres unmarked) [1-(4-Chloro-phenyl)-2-(2,4-dichloro-phenyl)-5-methanesulfinyl-1H-imidazole-4-carboxylic acid piperidin-1-ylamide], at rat SUR2A (setting [1]), the pKi worked out at 4.9. Besides, the Ki on hamster SUR1 is 100 µM.
Consider `CS(=O)(=O)c1c(C(=O)NN2CCCCC2)nc(-c2ccc(Cl)cc2Cl)n1-c1ccc(Cl)cc1` [1-(4-Chloro-phenyl)-2-(2,4-dichloro-phenyl)-5-methanesulfonyl-1H-imidazole-4-carboxylic acid piperidin-1-ylamide], for which the pKi at rat SUR2A is 5.0. Moreover, the Ki at hamster SUR1 is 100 µM.
As for `Cc1c(C(=O)NC2CCC(O)CC2)nc(-c2ccc(Cl)cc2Cl)n1-c1ccc(Cl)cc1` (centres unmarked) [1-(4-Chloro-phenyl)-2-(2,4-dichloro-phenyl)-5-methyl-1H-imidazole-4-carboxylic acid (4-hydroxy-cyclo-hexyl)-amide], the negative-log Ki (pKi) at rat SUR2A amounted to 5.0. The Ki at hamster SUR1 is 100 µM.
Regarding `CCCCCc1nc(-c2ccc(Cl)cc2Cl)n(-c2ccc(Cl)cc2)c1C` [1-(4-Chloro-phenyl)-2-(2,4-dichloro-phenyl)-5-methyl-4-pentyl-1H-imidazole], the pKi on rat SUR2A (setting [1]) is reported as 5.3. Moreover, the Ki at hamster SUR1 is 1.58 µM.
On to `O=C(NN1CCCCC1)c1nc(-c2ccc(Cl)cc2Cl)n(-c2ccc(Cl)cc2)c1CN1CCCC1` [1-(4-Chloro-phenyl)-2-(2,4-dichloro-phenyl)-5-pyrrolidin-1-ylmethyl-1H-imidazole-4-carboxylic acid piperidin-1-ylamide], for which, on rat SUR2A (setting [1]), the pKi stood at 4.6. Besides, the Ki at hamster SUR1 is 100 µM.
On to `O=C(NN1CCCCC1)c1nc(-c2ccc(Cl)cc2Cl)n(-c2ccc(Cl)cc2)n1` [1-(4-Chloro-phenyl)-5-(2,4-dichloro-phenyl)-1H-[1,2,4]triazole-3-carboxylic acid piperidin-1-yl-amide], for which, on rat SUR2A, the pKi is reported as 5.0. Besides, on hamster SUR1, the Ki is 10 µM.
On the same counts, the results for `O=C(NN1CCCCC1)C1=NN(c2ccc(Cl)cc2)C(c2ccccc2)C1` (centres unmarked) [1-(4-Chloro-phenyl)-5-phenyl-4,5-dihydro-1H-pyrazole-3-carboxylic acid piperidin-1-ylamide] are 5.1 and 100 µM.
For `CS(=O)(=O)C(=C1CN(C(c2ccc(Cl)cc2)c2ccc(Cl)cc2)C1)c1cc(F)cc(F)c1` [1-[Bis-(4-chloro-phenyl)-methyl]-3-[(3,5-difluoro-phenyl)-methanesulfonyl-methylene]-azetidine, reference compound] the same measures were 5.1 and 5.01 µM.
`NC(=O)C1CCN(C(=NS(=O)(=O)c2ccc(Cl)cc2)N2CC(c3ccccc3)C(c3ccc(Cl)cc3)=N2)CC1` (centres unmarked) [1-{(4-Chloro-benzene-sulfonylimino)-[3-(4-chloro-phenyl)-4-phenyl-4,5-dihydro-pyrazol-1-yl]-methyl}-piperidine-4-carboxylic acid amide] came in with a pKi at rat SUR2A of 5.2. Besides, the Ki on hamster SUR1 was 3.16 µM.
For `O=C(NN1CCCCC1)c1cn(-c2ccc(C(F)(F)F)cc2)c(-c2ccc(Cl)cc2Cl)n1` [2-(2,4-Dichloro-phenyl)-1-(4-trifluoromethyl-phenyl)-1H-imidazole-4-carboxylic acid piperidin-1-ylamide] the same measures were 5.3 and 2.51 µM.
For `O=C(NN1CCCCC1)c1cn(-c2ccc(C(F)(F)F)cc2)c(-c2ccccc2Cl)n1` [2-(2-Chloro-phenyl)-1-(4-trifluoromethyl-phenyl)-1H-imidazole-4-carboxylic acid piperidin-1-ylamide] the same measures were 5.7 and 1 µM.
On the same counts, the results for `CCc1c(C(=O)NN2CCCCC2)nc(-c2ccccc2Cl)n1-c1ccc(Cl)cn1` [2-(2-Chloro-phenyl)-1-(5-chloro-pyridin-2-yl)-5-ethyl-1H-imidazole-4-carboxylic acid piperidin-1-ylamide] are 4.8 and 100 µM.
Consider `CCCCC(C)(O)c1nc(-c2ccc(Cl)cc2Cl)n(-c2ccc(Cl)cc2)c1C` (centres unmarked) [2-[1-(4-Chloro-phenyl)-2-(2,4-dichloro-phenyl)-5-methyl-1H-imidazol-4-yl]-hexan-2-ol], for which the pKi at rat SUR2A amounted to 5.3. Further, the Ki on hamster SUR1 was 1.58 µM.
For the compound `CCC1CN=C(N2CC(c3ccccc3)C(c3ccc(Cl)cc3)=N2)O1` (centres unmarked) [2-[3-(4-Chloro-phenyl)-4-phenyl-4,5-dihydro-pyrazol-1-yl]-5-ethyl-4,5-dihydro-oxazole], the pKi on rat SUR2A was 4.4. In addition, on hamster SUR1, the Ki is 3.16 µM.
As for `Cn1c(C(=O)NC2CCCCC2)nc(-c2ccc(Cl)cc2)c1-c1ccc(Cl)cc1Cl` [4-(4-Chloro-phenyl)-5-(2,4-dichloro-phenyl)-1-methyl-1H-imidazole-2-carboxylic acid cyclohexylamide], the pKi at rat SUR2A (setting [1]) turned out to be 4.7. For the same compound, the Ki on hamster SUR1 was 100 µM.
The compound `O=C(NS(=O)(=O)c1ccc(Cl)cc1)N1CC(c2ccccc2)C(c2ccc(Cl)cc2)=N1` (centres unmarked) [4-Chloro-N-[3-(4-chloro-phenyl)-4-phenyl-4,5-dihydro-pyrazole-1-carbonyl]-benzenesulfonamide] showed a pKi on rat SUR2A of 4.8. For the same compound, the Ki at hamster SUR1 was 3.16 µM.
For `N#CCCNC(=NS(=O)(=O)c1ccc(Cl)cc1)N1CC(c2ccccc2)C(c2ccc(Cl)cc2)=N1` (centres unmarked) [4-Chloro-N-[[3-(4-chloro-phenyl)-4-phenyl-4,5-dihydro-pyrazol-1-yl]-(2-cyano-ethylamino)-methylene]-benzene sulfonamide] the same measures were 5.9 and 0.2 µM.
On the same counts, the results for `CCNCCN/C(=N\S(=O)(=O)c1ccc(Cl)cc1)N1CC(c2ccccc2)C(c2ccc(Cl)cc2)=N1` (centres unmarked) [4-Chloro-N-[[3-(4-chloro-phenyl)-4-phenyl-4,5-dihydro-pyrazol-1-yl]-(2-ethylamino-ethylamino)-methylene]-Benzenesulfonamide] are 5.3 and 7.94 µM.
On the same counts, the results for `O=S(=O)(N=C(NCCCCN1CCCC1)N1CC(c2ccccc2)C(c2ccc(Cl)cc2)=N1)c1ccc(Cl)cc1` (centres unmarked) [4-Chloro-N-[[3-(4-chloro-phenyl)-4-phenyl-4,5-dihydro-pyrazol-1-yl]-(4-pyrrolidin-1-yl-butylamino)-methylene]-benzenesulfonamide] are 5.4 and 50.1 µM.
